Results reported in patent US6455576B1, “Macrolides with anti-inflammatory activity” (Zambon Group S.p.A., priority 1999, dated 2002).
Where two headings read alike, the source gives them in different places.

Key:
IL-8 release = test: In vitro inhibition of LPS-induced IL-8 release in ECV304 endothelial cells (ELISA); assay type: cell-based, human; settings: for IC50: 1 hour pre-incubation, supernatant after one night, concentration giving 50% of highest obtainable inhibition, read-out: IL-8 release potency IC50; for IL-8 release efficacy (%): highest obtainable inhibition
Procedure: A) Release of Interleukin 8 (IL-8)
A human endothelial immortalized cell line (ECV304) was obtained from ATTC (Rockville, Md.) and grown in Medium 199, mod. Earle's salts (GIBCO, Life Technologies, Grand Island, N.Y.), supplemented with 20% Fetal Calf Serum (GIBCO), 100 U/ml of penicillin and 100 µg/ml of streptomycin (SIGMA, St. Louis, Mo.) in wet atmosphere with 5% CO2 at 37° C.
The cells were cultivated on 96 well plates up to obtain a confluent monolayer. The compounds to be evaluated were dissolved in DMSO at 10^−2M and diluted with culture medium.
The compounds were pre-incubated with the cells 1 hour before the challenge.
The release of IL-8 was induced by adding 0.66 µg/ml of lipopolysaccharide B (E. coli 055:B5, Difco, Detroit, Mich.) in a final volume of 200 µl.
After one night, the supernatant was collected for the IL-8 test.
The specific immunoreactivity for IL-8 in the culture supernatant was measured with ELISA kit (Amersham, UK).
Results were expressed as the highest obtainable inhibition (efficacy) and, whether possible, as the concentration at which 50% of such effect (TC50) is obtained.

superoxide anion release = test: In vitro inhibition of FMLP-stimulated superoxide anion release from neutrophils (Lucigenin-enhanced chemiluminescence); assay type: cell-based, human; settings: neutrophils of healthy volunteers, 30 minutes pre-incubation at 37° C., FLMP stimulation, read-out: O2 release IC50
Procedure: B) Release of Superoxide Anions
Neutrophils were separated from venous blood of healthy volunteers by centrifugation on Ficoll-Hypaque, followed by sedimentation on 6% dextrane and osmotic lysis of erythrocytes. Neutrophils were then washed and resuspended in a medium made of RPMI-1640 supplemented with 5% foetal calf serum and 1.34 mmoles/l of disodium dihydrate EDTA. The cells were maintained for 24 hours at 4° C. and before the test the suspension was centrifugated and resuspended in HBSS (Hanks' balanced salt solution). The vitality and the purity of the neutrophil preparation was verified by dyeing with Trypan blue and Turk blue.
The superoxide anions were measured by using Lucigenin (bis-N-methylacridinium nitrate)-enhanced chemiluminescence technique.
Neutrophils (2×10^6 cells/ml) were pre-incubated for 30 minutes at 37° C. in 900 µl of HBSS with and without the tested compound (reading system).
The production of superoxide anions was measured with a Lumac/3M bio-counter after addition of 100 µl of a solution in HBSS of Lucigenin (2 mmoles/l) and N-formyl-L-methionyl-L-leucyl-L-phenylalanine (FLMP) as stimulating agent at the concentration of […] to the reading system. FLMP was dissolved in DMSO (1×10^−2 M) and further diluted in HBSS. The compound to be tested was dissolved in DMSO at the concentration of 10^−2 M. Lower concentrations, in DMSO, were prepared from that solution, and tested. The DMSO amount present in the reading system was lower than 1%.
The luminosity values obtained at the peak, for each tested concentration of the compound, were transformed in inhibition percentage in comparison with the reference.
The concentration able to inhibit the production of superoxide anion at 50% (IC50) was calculated from the obtained “dose-response” curve.

[1] = system: neutrophilia induced by LPS; test: In vivo inhibition of neutrophilia induced by LPS after repeated administrations (bronchoalveolar lavage); set-up: species or system rat; settings: Sprague-Dawley rats, compound i.p. twice a day for 6 days and 7th day 1 hour before and 5 hours after LPS 6 mg/kg i.p.; BALF 24 hours after LPS
Procedure: In vivo Pharmacological Activity
Male Sprague-Dawley rats weighing between 200 and 300 g were used.
The rats used in the experiments were not evidently infected. The animals were maintained in standard conditions for 7 days before being sacrificed.
LPS (E. coli lipopolisaccharide) (endotoxin; 055:B5 serum-type; Sigma Chemical Co., St. Louis, Mo.) was dissolved in saline sterile solution and was administered by intraperitoneal injection (i.p.) at a dose of 6 mg/kg (1 ml/kg). Analogously the saline solution and/or the carrier (saline solution+0.5% Tween 20) were injected into the control animals.
Compound Administration (Prophylactic Treatment)
Each compound was administered by i.p. injection twice a day for 6 days, the 7th day 1 hour before and 5 hours after LPS administration. The compounds were suspended with 0.5% Tween 20 in the saline solution.
After 24 hours from the LPS injection rats were sacrificed with an overdose of nembutal (100 mg/kg i.p.). The trachea was incannulated and the lung was washed by instilling two 5 ml aliquots of PBS (phosphate buffer saline) at 37° C. and the fluid was immediately removed. The fluid was again injected and the procedure was altogether repeated three times for each aliquot.
Cell Counting and Differentiation
200 μl of BALF (bronchoalveolar lavage fluid) were diluted in 1 ml of cold water and 19 ml of Isoton. The overall number of cells was counted twice by using Contraves autolyser 800. When the total number was lower than 2000, BALFs were centrifugated at 800 rpm for 10 minutes in order to separate the cells from the supernatant. The supernatants were discharged and the cells resuspended in a small amount of PBS. For the cytological evaluation, 50 μl of the solution with the resuspended cells were centrifugated for 1 minute at 1300 rpm by using a Shandon Cytospin centrifuge. The slides were fixed in acetone and dyed with DiffQuick. The differential counts of cells were performed on each slide by counting 200 cells at random; cellular types were classified as neutrophils, eosinophils and mononuclear cells according to morphological standard criteria.

[2] = Homo sapiens, ECV-304, LPS 0.66 μg/ml

| IC50 (IL-8 release; LPS 0.66 μg/ml) [µM] | IC50 (IL-8 release; [2]) [µM] | Molecule | IL-8 release efficacy (%) (IL-8 release; LPS 0.66 μg/ml) | IC50 (superoxide anion release) [µM] | Inhibition (%) [1] [%] | IC50 (superoxide anion release; Homo sapiens, Neutrophil) [µM] |
| --- | --- | --- | --- | --- | --- | --- |
| 12 | – | 3′-de(dimethylamino)-erythromycin A (E)-9-O-[2-methoxy-ethoxy]-methyl]-oxime] [Compound 5] | 55 ± 0.9 | > 100 | – | – |
| – | – | 3′-de(dimethylamino)-erythromycin A (E)-9-[O-[2-[6-[(thiazol-2-ylmethyl)-amino]-hexyl-amino]-ethyl]-oxime] [Compound 8] | 19 ± 1 | 3.5 ± 0.2 | – | – |
| 7.7 ± 0.3 | – | 3′-de(dimethylamino)-erythromycin A (E)-9-[O-[2-[(6-amino-hexyl)-amino]-ethyl]-oxime] [Compound 6] | 37 ± 10 | 9.9 ± 0.69 | −11 | – |
| – | – | 3′-de(dimethylamino)erythromycin A (E)-9-[O-[2-[6-(benzylamino)-hexylamino]-ethyl]-oxime] [Compound 9] | – | 3.5 ± 0.5 | −96 | – |
| – | – | CCC1OC(=O)C(C)C(OC2CC(C)(OC)C(O)C(C)O2)C(C)C(OC2OC(C)C=CC2O)C(C)(O)CC(C)C(=NO)C(C)C(O)C1(C)O (stereo not shown) [Compound 1, 3′-de(dimethylamino)-3′,4′-dehydro-erythromycin A Oxime] | 29 | 35.3 ± 5.4 | – | – |
| – | – | CC[C@H]1OC(=O)[C@H](C)[C@@H](O[C@H]2C[C@@](C)(OC)[C@@H](O)[C@H](C)O2)[C@H](C)[C@@H](O[C@@H]2O[C@H](C)CC[C@H]2O)[C@](C)(O)C[C@@H](C)C(=NO)[C@H](C)[C@@H](O)[C@]1(C)O [Compound 2, 3′-de(dimethylamino)-erythromycin A Oxime] | 29 | 11.4 ± 2.9 | −31 | – |
| – | – | CCC1OC(=O)C(C)C(OC2CC(C)(OC)C(O)C(C)O2)C(C)C(OC2OC(C)CCC2O)C(C)(O)CC(C)C(=NOCCOCCNCc2ccccc2)C(C)C(O)C1(C)O (stereo not shown) [Compound 11, 3′-de(dimethylamino)-erythromycin A (E)-9-[O-[2-[2-(benzylaminol)-ethoxy]-ethyl]-oxime]] | 22 ± 4 | 5 | – | – |
| – | – | CCC1OC(=O)C(C)C(OC2CC(C)(OC)C(O)C(C)O2)C(C)C(OC2OC(C)CCC2O)C(C)(O)CC(C)C(=NOCCNCCNCc2nccs2)C(C)C(O)C1(C)O (stereo not shown) [Compound 16, 3′-de(dimethylamino)-erythromycin A (E)-9-[O-[2-[2-[(thiazol-2-ylmethyl)-amino]-ethyl-amino]-ethyl]-oxime]] | 35 | 14.3 | – | – |
| – | 8.9 ± 3.2 | CC[C@H]1OC(=O)[C@H](C)[C@@H](O[C@H]2C[C@@](C)(OC)[C@@H](O)[C@H](C)O2)[C@H](C)[C@@H](O[C@@H]2O[C@H](C)C[C@H](N(C)C)[C@H]2O)[C@](C)(OC)C[C@@H](C)C(=O)[C@H](C)[C@@H](O)[C@]1(C)O [clarithromycin, reference compound] | 48 ± 6 | – | −47 | 49.2 ± 1.9 |
| – | – | CC[C@H]1OC(=O)[C@H](C)[C@@H](O[C@H]2C[C@@](C)(OC)[C@@H](O)[C@H](C)O2)[C@H](C)[C@@H](O[C@@H]2O[C@H](C)C[C@H](N(C)C)[C@H]2O)[C@](C)(O)C[C@@H](C)C(=O)[C@H](C)[C@@H](O)[C@]1(C)O [erythromycin, reference compound] | 27 ± 1 | – | −46 | > 100 |
| – | 5.5 ± 1.5 | CC[C@H]1OC(=O)[C@H](C)[C@@H](O[C@H]2C[C@@](C)(OC)[C@@H](O)[C@H](C)O2)[C@H](C)[C@@H](O[C@@H]2O[C@H](C)C[C@H](N(C)C)[C@H]2O)[C@](C)(O)C[C@@H](C)/C(=N\OCOCCOC)[C@H](C)[C@@H](O)[C@]1(C)O [roxithromycin, reference compound] | 43 ± 6 | – | −50 | 89 ± 5 |
